{"source": "paper PMC6437697", "about": "(Journal of Medicinal Chemistry, 2019)", "test_in_all_cases": "KINOMEscan", "type_in_all_cases": "binding", "settings_in_all_cases": "read-out: % control activity remaining", "key": {"KIT(V559D)": {"molecular_target": "T1, KIT(V559D) (Homo sapiens, UniProt P10721, V559D)", "T1 construct": "purchased Eurofins DiscoverX KINOMEscan", "T1 sequence (P10721 26-976 V559D)": "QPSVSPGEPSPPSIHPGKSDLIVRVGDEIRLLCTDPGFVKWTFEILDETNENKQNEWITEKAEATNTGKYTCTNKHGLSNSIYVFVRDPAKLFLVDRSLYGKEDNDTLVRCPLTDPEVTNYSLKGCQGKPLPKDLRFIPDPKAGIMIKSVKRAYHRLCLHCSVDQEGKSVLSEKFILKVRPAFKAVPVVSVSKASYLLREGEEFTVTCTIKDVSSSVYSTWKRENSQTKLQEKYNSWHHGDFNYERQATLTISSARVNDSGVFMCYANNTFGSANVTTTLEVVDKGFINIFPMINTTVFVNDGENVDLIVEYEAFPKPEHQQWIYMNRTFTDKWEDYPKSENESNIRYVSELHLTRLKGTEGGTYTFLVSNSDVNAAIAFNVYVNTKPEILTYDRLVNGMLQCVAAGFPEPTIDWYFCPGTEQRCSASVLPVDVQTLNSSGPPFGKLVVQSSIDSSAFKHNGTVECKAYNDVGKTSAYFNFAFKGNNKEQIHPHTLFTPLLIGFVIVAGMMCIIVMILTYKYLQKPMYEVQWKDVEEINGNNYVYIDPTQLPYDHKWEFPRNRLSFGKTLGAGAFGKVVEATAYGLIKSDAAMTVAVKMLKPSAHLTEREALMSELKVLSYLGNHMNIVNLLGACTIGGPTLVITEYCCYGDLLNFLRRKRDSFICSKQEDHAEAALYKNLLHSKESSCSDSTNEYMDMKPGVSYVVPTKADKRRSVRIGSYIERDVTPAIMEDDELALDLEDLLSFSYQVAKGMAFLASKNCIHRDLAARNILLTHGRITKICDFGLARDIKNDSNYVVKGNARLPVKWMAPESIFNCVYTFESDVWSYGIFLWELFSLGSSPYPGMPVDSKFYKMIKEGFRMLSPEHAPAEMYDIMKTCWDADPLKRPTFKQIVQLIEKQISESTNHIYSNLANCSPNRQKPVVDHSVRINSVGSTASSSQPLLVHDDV"}, "EGFR(E746-A750del)": {"molecular_target": "T2, EGFR(E746-A750del) (Homo sapiens, UniProt P00533, DEL746-750)", "T2 construct": "purchased Eurofins DiscoverX KINOMEscan", "T2 sequence (P00533 with tags, fused parts or gaps DEL746-750 limits assumed)": "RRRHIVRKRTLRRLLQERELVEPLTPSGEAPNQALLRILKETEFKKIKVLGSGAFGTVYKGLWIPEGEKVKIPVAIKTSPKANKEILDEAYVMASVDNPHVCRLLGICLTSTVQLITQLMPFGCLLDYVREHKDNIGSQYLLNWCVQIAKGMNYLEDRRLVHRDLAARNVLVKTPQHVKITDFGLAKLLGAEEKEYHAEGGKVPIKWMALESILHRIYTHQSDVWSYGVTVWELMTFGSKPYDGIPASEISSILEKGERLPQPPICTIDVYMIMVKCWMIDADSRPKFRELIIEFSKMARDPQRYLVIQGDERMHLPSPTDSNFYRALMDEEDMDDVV"}, "ITK": {"molecular_target": "T3, ITK (Homo sapiens, UniProt Q08881)", "T3 construct": "purchased Eurofins DiscoverX KINOMEscan", "T3 sequence (Q08881 1-620)": "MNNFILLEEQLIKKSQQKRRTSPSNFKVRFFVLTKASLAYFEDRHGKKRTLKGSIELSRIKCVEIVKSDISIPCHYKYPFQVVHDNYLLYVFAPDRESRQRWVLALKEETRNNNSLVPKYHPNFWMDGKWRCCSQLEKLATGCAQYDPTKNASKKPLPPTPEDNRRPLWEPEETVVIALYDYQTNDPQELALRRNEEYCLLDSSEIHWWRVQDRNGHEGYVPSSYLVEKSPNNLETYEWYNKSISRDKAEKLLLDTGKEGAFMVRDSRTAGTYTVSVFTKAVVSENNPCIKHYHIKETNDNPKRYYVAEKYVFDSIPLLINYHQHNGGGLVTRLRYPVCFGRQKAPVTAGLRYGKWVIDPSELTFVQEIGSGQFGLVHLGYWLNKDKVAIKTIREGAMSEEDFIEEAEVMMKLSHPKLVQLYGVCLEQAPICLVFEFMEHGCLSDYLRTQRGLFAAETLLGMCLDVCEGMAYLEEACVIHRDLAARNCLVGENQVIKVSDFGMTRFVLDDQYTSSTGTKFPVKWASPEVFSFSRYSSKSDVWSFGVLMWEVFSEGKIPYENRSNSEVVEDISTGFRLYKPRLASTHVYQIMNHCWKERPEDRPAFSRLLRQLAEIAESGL"}, "EPHB1": {"molecular_target": "T4, EPHB1 (Homo sapiens, UniProt P54762)", "T4 construct": "purchased Eurofins DiscoverX KINOMEscan", "T4 sequence (P54762 18-984)": "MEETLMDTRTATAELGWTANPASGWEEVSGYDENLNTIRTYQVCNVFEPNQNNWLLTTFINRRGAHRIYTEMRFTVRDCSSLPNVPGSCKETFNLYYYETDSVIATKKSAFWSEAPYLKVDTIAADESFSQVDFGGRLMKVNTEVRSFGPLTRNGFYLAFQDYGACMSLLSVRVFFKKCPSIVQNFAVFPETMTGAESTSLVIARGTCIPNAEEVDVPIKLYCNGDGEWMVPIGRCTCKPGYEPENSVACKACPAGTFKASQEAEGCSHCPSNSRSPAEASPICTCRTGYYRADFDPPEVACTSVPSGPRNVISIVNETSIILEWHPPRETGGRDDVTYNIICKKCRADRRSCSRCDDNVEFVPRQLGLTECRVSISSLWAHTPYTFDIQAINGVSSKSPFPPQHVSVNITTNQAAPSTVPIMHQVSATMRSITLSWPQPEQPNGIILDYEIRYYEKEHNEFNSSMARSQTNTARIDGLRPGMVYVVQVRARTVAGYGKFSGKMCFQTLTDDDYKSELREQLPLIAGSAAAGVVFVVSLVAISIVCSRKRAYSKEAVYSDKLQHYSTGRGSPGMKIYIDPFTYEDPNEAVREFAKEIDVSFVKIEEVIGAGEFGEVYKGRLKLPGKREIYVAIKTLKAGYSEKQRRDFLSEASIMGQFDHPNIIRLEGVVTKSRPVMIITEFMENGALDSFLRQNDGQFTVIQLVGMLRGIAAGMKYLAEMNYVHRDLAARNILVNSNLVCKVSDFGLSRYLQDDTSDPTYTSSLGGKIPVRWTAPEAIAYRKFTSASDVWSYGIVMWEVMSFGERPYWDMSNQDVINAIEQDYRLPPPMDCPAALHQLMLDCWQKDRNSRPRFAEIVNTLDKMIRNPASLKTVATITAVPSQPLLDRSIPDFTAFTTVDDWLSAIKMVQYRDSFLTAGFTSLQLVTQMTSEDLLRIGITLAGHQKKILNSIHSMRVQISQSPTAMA"}, "MST2": {"molecular_target": "T5, MST2 (Homo sapiens, UniProt Q13188)", "T5 construct": "purchased Eurofins DiscoverX KINOMEscan", "T5 sequence (Q13188 1-491)": "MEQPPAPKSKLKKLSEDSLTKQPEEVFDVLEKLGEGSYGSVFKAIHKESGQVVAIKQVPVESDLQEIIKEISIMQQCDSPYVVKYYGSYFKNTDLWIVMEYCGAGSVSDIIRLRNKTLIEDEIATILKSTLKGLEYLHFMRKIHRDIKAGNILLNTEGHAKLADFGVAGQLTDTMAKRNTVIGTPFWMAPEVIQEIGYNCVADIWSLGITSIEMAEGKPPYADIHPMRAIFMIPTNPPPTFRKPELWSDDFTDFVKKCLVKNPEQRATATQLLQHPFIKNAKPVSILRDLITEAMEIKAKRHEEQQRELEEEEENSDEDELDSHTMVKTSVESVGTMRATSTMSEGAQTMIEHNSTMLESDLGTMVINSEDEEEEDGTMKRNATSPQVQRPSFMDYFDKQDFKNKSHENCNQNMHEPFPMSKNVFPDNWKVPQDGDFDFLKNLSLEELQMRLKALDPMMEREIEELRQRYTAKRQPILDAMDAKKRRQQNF"}, "MLK3": {"molecular_target": "T6, MLK3 (Homo sapiens, UniProt Q16584)", "T6 construct": "purchased Eurofins DiscoverX KINOMEscan", "T6 sequence (Q16584 whole entry)": "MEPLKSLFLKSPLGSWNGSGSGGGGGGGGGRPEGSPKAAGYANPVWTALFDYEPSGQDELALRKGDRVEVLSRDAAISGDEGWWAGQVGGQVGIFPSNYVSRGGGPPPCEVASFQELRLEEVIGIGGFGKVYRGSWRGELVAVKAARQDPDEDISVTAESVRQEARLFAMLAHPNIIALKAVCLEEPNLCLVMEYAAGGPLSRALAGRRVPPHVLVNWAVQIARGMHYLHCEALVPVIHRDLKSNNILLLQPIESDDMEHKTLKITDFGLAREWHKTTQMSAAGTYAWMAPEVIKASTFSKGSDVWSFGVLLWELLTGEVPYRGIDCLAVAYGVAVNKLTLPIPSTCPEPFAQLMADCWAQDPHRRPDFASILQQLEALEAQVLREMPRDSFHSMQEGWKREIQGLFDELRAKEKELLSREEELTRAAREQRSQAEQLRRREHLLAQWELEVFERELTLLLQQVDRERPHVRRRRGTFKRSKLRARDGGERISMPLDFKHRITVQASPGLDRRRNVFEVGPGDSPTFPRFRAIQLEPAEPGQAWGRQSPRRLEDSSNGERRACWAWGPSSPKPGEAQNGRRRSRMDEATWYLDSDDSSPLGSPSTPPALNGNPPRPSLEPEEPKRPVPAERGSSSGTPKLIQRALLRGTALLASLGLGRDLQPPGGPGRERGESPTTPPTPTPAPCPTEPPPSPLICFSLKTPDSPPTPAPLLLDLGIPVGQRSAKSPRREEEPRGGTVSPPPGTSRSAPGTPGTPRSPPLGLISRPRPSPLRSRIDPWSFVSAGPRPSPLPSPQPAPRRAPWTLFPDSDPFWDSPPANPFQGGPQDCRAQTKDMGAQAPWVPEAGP"}, "KIT": {"molecular_target": "T7, KIT (Homo sapiens, UniProt P10721)", "T7 construct": "purchased Eurofins DiscoverX KINOMEscan", "T7 sequence (P10721 26-976)": "as the sequence (P10721 26-976 V559D) above, with D534V counted along it"}}}
{"smiles": "Clc1cc(NCC2CC2)c2ncc(-c3ccc4[nH]ncc4c3)n2n1", "note": "[compound 2, 6-Chloro-N-(cyclopropylmethyl)-3-(1H-indazol-5-yl)imidazo[1,2-b]pyridazin-8-amine]", "values": [{"measurement": "remaining binding at 1 µM", "setting": "KIT(V559D)", "value": 0.45, "unit": "%"}, {"measurement": "remaining binding at 1 µM", "setting": "EGFR(E746-A750del)", "value": 84, "unit": "%"}, {"measurement": "remaining binding at 1 µM", "setting": "ITK", "value": 92, "unit": "%"}, {"measurement": "remaining binding at 1 µM", "setting": "EPHB1", "value": 100, "unit": "%"}, {"measurement": "remaining binding at 1 µM", "setting": "MST2", "value": 85, "unit": "%"}, {"measurement": "remaining binding at 1 µM", "setting": "MLK3", "value": 100, "unit": "%"}, {"measurement": "remaining binding at 1 µM", "setting": "KIT", "value": 1.6, "unit": "%"}]}
{"smiles": "O=C(CN1CCOCC1)N[C@H]1CC[C@H](Nc2cc(Cl)nn3c(-c4ccc5[nH]ncc5c4)cnc23)CC1", "note": "[compound 26]", "values": [{"measurement": "remaining binding at 1 µM", "setting": "KIT(V559D)", "value": 0.05, "unit": "%"}, {"measurement": "remaining binding at 1 µM", "setting": "EGFR(E746-A750del)", "value": 91, "unit": "%"}, {"measurement": "remaining binding at 1 µM", "setting": "ITK", "value": 84, "unit": "%"}, {"measurement": "remaining binding at 1 µM", "setting": "EPHB1", "value": 89, "unit": "%"}, {"measurement": "remaining binding at 1 µM", "setting": "MST2", "value": 92, "unit": "%"}, {"measurement": "remaining binding at 1 µM", "setting": "MLK3", "value": 100, "unit": "%"}, {"measurement": "remaining binding at 1 µM", "setting": "KIT", "value": 0, "unit": "%"}]}
{"smiles": "CN1CCC(CNc2cc(Cl)nn3c(-c4cc5nc(Nc6ccccc6)[nH]c5cc4F)cnc23)CC1", "note": "[compound 31, 6-Chloro-3-(6-fluoro-2-(phenylamino)-1H-benzo[d]imidazol-5-yl)-N-((1-methylpiperidin-4-yl)methyl)imidazo[1,2-b]pyridazin-8-amine]", "values": [{"measurement": "remaining binding at 1 µM", "setting": "KIT(V559D)", "value": 67, "unit": "%"}, {"measurement": "remaining binding at 1 µM", "setting": "EGFR(E746-A750del)", "value": 100, "unit": "%"}, {"measurement": "remaining binding at 1 µM", "setting": "ITK", "value": 91, "unit": "%"}, {"measurement": "remaining binding at 1 µM", "setting": "EPHB1", "value": 84, "unit": "%"}, {"measurement": "remaining binding at 1 µM", "setting": "MST2", "value": 100, "unit": "%"}, {"measurement": "remaining binding at 1 µM", "setting": "MLK3", "value": 81, "unit": "%"}, {"measurement": "remaining binding at 1 µM", "setting": "KIT", "value": 68, "unit": "%"}]}
